Like-named read-outs stand apart in the source and are kept apart here.
Key:
[1] = Lawson test (cardiac antifibrillatory power, chloroform); conditions: in vivo, ip; mouse, intraperitoneal; read-out: Maximum Dose Tolerated
[2] = tested on: ventricular arrhythmias and death induced by the aconitine; assay: Aconitine intoxication test in the anesthetized rat; assay type: in vivo; conditions: i.v., vs untreated control
From the text: (§1) Narcisse et al, Ann. Pharma. Fr., 37, 325-330 (1979), in the rat by the aconitine intoxication test of S. Witchitz et al, Coeur Med. Int., X(2), 281-286, (1971) and in the dog by the Harris test described in Circulation, 1, 1318, (1950) and by the test with adrenalin after experimental infarct of I. J. Steffe et al, J. Pharmacol. Exp. Ther., 214, 50-57 (1980).
The anesthetized rat was intoxicated with an intravenous perfusion of aconitine while its electrocardiogram (ECG) was permanently recorded. During the perfusion at constant rate, the time necessary for the appearance of ventricular arrhythmias, successive extrasystoles (ESV), then stable ventricular tachycardium (TV) and the time within which the animal died were measured.
The animals were divided into a control group (untreated) and treated groups (different doses). The results are expressed as a percentage of prolonging the time of appearance of the arrhythmias and of death of the treated groups in reaction to the control group.
The results obtained are shown in Table 4 below and express the percentage of prolongation of the time of appearance of ventricular arrhythmias (ventricular extrasystoles and ventricular tachycardiums), and of the death, induced by the aconitine after an intravenous injection (I.V.) of several derivatives of the invention, in relation to a group of untreated control animals.

[3] = tested on: ventricular arrhythmias with adrenalin; assay: Test with adrenalin after experimental infarct; assay type: in vivo, dog; conditions: 14.3 mg/kg, control period 74% of ESV
From the text: as §1
2 to 5 days after an experimental infarct, the effects of discontinuous injections (in intravenous bolus of […] of basic adrenalin) of adrenalin were observed on the electrocardioagram of the conscious dog.
During a first phase (control) of the experiment, three successive injections of adrenalin were given and, in the 2 minutes following each injection, the frequency of the ventricular extrasystoles was measured. In this manner, by increasing the dose of adrenalin as necessary, it was possible to determine the dose which caused the appearance of ventricular extrasystoles at a higher frequency than or equal to half the total number of ventricular systoles.
After injection of the derivative to be tested, the same dose of adrenalin was reinjected after 5 minutes, then 30 minutes, 60 minutes, 90 minutes, etc., and its effects were compared to those observed during the control period.
The results therein are expressed as a percentage of extrasystoles (on the total number of systoles) measured during the 2 minutes following the injection of adrenalin before and after the administration of the derivative to be tested.

[4] = tested on: anoxic ventricular fibrillation; assay: Lawson test (cardiac antifibrillatory power, chloroform); assay type: in vivo; conditions: ip; mouse, intraperitoneal, 10 minutes before chloroform
Description: The Lawson test is a test for the study of the cardiac antifibrillatory power of the derivatives. The mice (20 per group) received an intraperitoneal injection of the derivative 10 minutes before being placed in a chloroform-saturated atmosphere. Upon respiratory arrest, the thorax was opened (5 to 10 seconds) and whether or not the heart was in ventricular fibrillation was checked. The efficacy dose 50 (ED 50) of the derivative being studied is the dose which protects half the mice against anoxic ventricular fibrillation.

anesthetized dog [5] = assay: Electrophysiological studies on the anesthetized dog; assay type: in vivo; conditions: i.v., doses 0.3 to 14.3 mg/kg; 2 evaluations
Description: This study was carried out on dogs anesthetized with pentobarbital, with a closed thorax, by means of bipolar catheter-electrodes introduced into the cardiac cavities by transcutaneous venous and arterial means. The surface electrocardiogram (standard derivation D2) is recorded permanently.
By means of a programmable JANSEN (R) stimulator, the following parameters may be measured:
spontaneous cardiac frequency (FC);
sinus recuperation time (SRTc) after auricular stimulation imposed at 160 b/mn for 1 mn;
intracardiac conduction times (auriculohisien at a constant frequency, His-Purkinje, intraventricular);
the effective and functional refractory periods measured at an imposed constant frequency, with the extrastimulus method.
During the electrophysiological study, the derivatives were injected intravenously for 2 minutes for each dose and at 30 minute intervals between each dose. The doses are expressed as a cumulative value and as a base term.
The measurement of the various parameters was carried out before the injection of the first dose (control period) and from 10 to 28 minutes after the injection of each dose of the substance. The results are expressed as a percentage of variation in relation to the control period.

[6] = Acute toxicity in the mouse (LD 50, Litchfield and Wilcoxon); conditions: in vivo
Description: The acute toxicity of the derivatives of the invention were studied by intraperitoneal administration (I.P.) on the mouse (10 animals, 5 males and 5 females per dose) and calculation of the lethal dose 50 (LD 50) in accordance with the method of Litchfield and Wilcoxon (J. Pharmacol. 96, 99-113 (1949)).
In certain cases (derivatives of Examples 4, 6, 9), the LD 50 was also calculated after oral administration (P.O.) of the derivatives.

anesthetized dog [7] = assay: Hemodynamic (cardiovascular) tolerance in the anesthetized dog; assay type: in vivo; conditions: i.v., cumulative doses 0.3 to 10 mg/kg; vs control period
Description: The hemodynamic tolerance of the derivatives of the invention was studied on dogs anesthesized with sodium pentobarbital. Endocavitary pressures were measured by means of catheters connected to Statham sensors while external recording of the electrocardiogram (E.C.G.) provided the measurement of cardiac frequency. Cardiac flow was measured by means of an electromagnetic sensor placed on the beginning of the aorta. The total peripheral resistances R were calculated from the value of the average aortic pressure (P) and the cardiac flow (Q) in accordance with the formula R=P/Q.
After measurement of the parameters during a control period, the derivatives were injected intravenously in cumulative doses (30 minute interval between doses). The variations of the parameters in relation to the control period were measured within 20 and 30 minutes after each injection and are expressed as a percentage of variation in relation to the control.
Table 2 summarizes the variations in hemodynamic parameters observed between the first and last injections.

ventricular arrhythmias = assay: Harris test (ventricular arrhythmias after experimental infarct); assay type: in vivo, dog; conditions: 3 mg/kg i.v.
From the text: as §1
The ligature of the anterior interventricular artery in the anesthetized dog causes the appearance of an experimental infarct of the myocardium followed by considerable ventricular arrhythmias.
The dogs were studied 24 to 48 hours after the intervention. The electrocardiogram (ECG) was then recorded permanently, the conscious dog being at rest in an isolated laboratory. After a period of 3 hours of ECG recording, allowing for the measurement of the cardiac frequency of the dog the frequency of ventricular extrasystoles (ESV)--pre-treatment control period--the derivative to be studied was injected intravenously for 1 minute. Continuous recording of the ECG enabled, in the hours following the injection, measurement of the frequency of the ESV/mn for successive periods from 30 to 60 min. The number of ESV per minute measured for 3 hours during the control period varied from 66 to 172/min with an average of 111/min. […] The length of this antiarrhythmic effect observed varied depending on the derivatives from 1 hour to more than 5 hours. For example, the percentage decrease of the ESV/min in the case of the derivative of Example 11 (cumulative dose 14 mg/kg) was 96% (0 to 1/2 hour), 50% (1/2 to 1 hour) and 68% (1 to 2 hour). The corresponding values for the derivative of Example 4 (3 mg/kg) were 44%, 55% and 45%, respectively.

Q: Which MTD [1] does the source give for `CC1(NC(=O)CCc2ccccc2)C2CC3CC1CN(C2)C3(C)C` (stereo not drawn) [Example 4, N-(3-phenylpropionyl)-4-amino-4,8,8-trimethyl-1-azaadamantane] here?
A: Its MTD is 200 mg/kg.

Q: And the “Prolongation of time of appearance of ventricular extrasystoles (ESV)” value (“Prolongation of time of appearance … (ESV)” for short) ([2]; 5 mg/kg)?
A: Its value is “+37%”.

Q: What about the “Prolongation of time of appearance of ventricular tachycardium (TV)” value (“Prolongation of time of appearance … (TV)” for short) ([2]; 5 mg/kg) of the same compound?
A: Its value is “+50%”.

Q: And the “Prolongation of time to death” value ([2]; 5 mg/kg)?
A: The value was “+25%”.

Q: What about the “Prolongation of time of appearance … (ESV)” value ([2]; 10 mg/kg) of the same compound?
A: Its value is “+60%”.

Q: What about the “Prolongation of time of appearance … (TV)” value ([2]; 10 mg/kg) of the same compound?
A: Its value is “+86%”.

Q: And the “Prolongation of time to death” value ([2]; 10 mg/kg)?
A: The value was “+39%”.

Q: What about the “Prolongation of time of appearance … (ESV)” value ([2]; 20 mg/kg) of the same compound?
A: Its value is “+103%”.

Q: And the “Prolongation of time of appearance … (TV)” value ([2]; 20 mg/kg)?
A: Its value is “+89%”.

Q: And the “Prolongation of time to death” value ([2]; 20 mg/kg)?
A: The value was “+65%”.

Q: What about the “ESV Percentage at 5 min” value ([3]; 5 min) of the same compound?
A: The value was 36%.

Q: What about the “ESV Percentage at 30 min” value ([3]; 30 min) of the same compound?
A: Its value is 59%.

Q: What about the “ESV Percentage at 60 min” value ([3]; 60 min) of the same compound?
A: The value was 60%.

Q: And the ED50 [4]?
A: Its ED50 is 72 mg/kg.

Q: What about the “F.C. (cardiac frequency), variation” value (anesthetized dog [5]) of the same compound?
A: Its value is 0%.

Q: What about the “HV (time of His-Purkinje conduction), variation” value (anesthetized dog [5]) of the same compound?
A: Its value is 0 to +80%.

Q: What about the “PREA (effective auricular refractory period), variation” value (anesthetized dog [5]) of the same compound?
A: Its value is “+10 to +35%”.

Q: What about the “PREV (effective ventricular refractory period), variation” value (anesthetized dog [5]) of the same compound?
A: The value was 0 to +10%.

Q: What about the “QRS (time of intraventricular conduction), variation” value (anesthetized dog [5]) of the same compound?
A: The value was 0 to +15%.

Q: What about the “St-H (time of auriculohisien conduction), variation” value (anesthetized dog [5]) of the same compound?
A: Its value is “+7 to +10%”.

Q: What about the LD50 ([6]; ip, intraperitoneal, read-out: LD 50 I.P.) of the same compound?
A: Its LD50 is 375 mg/kg.

Q: And the LD50 ([6]; oral, read-out: LD 50 P.O.)?
A: Its LD50 is 2400 mg/kg.

Q: What about the “Cardiac Flow, percentage of variation” value (anesthetized dog [7]) of the same compound?
A: Its value is -7 to -23%.

Q: And the “Cardiac Frequency, percentage of variation” value (anesthetized dog [7])?
A: The value was -7%.

Q: What about the “Systolic Arterial Pressure, percentage of variation” value (anesthetized dog [7]) of the same compound?
A: The value was -7 to -28%.

Q: And the “Total Peripheral Resistances, percentage of variation” value (anesthetized dog [7])?
A: Its value is 0 to -13%.

Q: What about the “dp/dt/p Left Ventricular, percentage of variation” value (anesthetized dog [7]) of the same compound?
A: The value was 0 to -40%.

Q: What about the “Percentage decrease of the ESV/min” value (ventricular arrhythmias; 0 to 1/2 hour) of the same compound?
A: Its value is 44%.

Q: What about the “Percentage decrease of the ESV/min” value (ventricular arrhythmias; 1/2 to 1 hour) of the same compound?
A: Its value is 55%.

Q: What about the “Percentage decrease of the ESV/min” value (ventricular arrhythmias; 1 to 2 hour) of the same compound?
A: Its value is 45%.
